In US8569343B2, “Oligomer-opioid agonist conjugates” (Nektar Therapeutics, priority 2007, dated 2013):

Each compound was assayed against recombinant human delta opioid receptor (Homo sapiens, UniProt P41143) (assay: not given). Settings: GTP-γS binding, screened up to 10 μM in agonist and antagonist mode.
Sequence of recombinant human delta opioid receptor (P41143 whole entry): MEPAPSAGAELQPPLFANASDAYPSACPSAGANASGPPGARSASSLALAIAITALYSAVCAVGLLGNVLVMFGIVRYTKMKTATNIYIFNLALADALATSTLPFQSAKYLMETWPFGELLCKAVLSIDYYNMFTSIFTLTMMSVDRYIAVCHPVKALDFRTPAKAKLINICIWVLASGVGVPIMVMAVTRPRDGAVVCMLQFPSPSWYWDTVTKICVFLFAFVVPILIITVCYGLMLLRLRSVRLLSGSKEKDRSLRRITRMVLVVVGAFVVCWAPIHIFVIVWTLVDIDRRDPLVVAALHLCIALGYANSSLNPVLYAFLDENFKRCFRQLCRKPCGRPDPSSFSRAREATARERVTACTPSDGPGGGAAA

Compound | effect at the delta opioid receptor
COCCOCCOCCO[C@H]1CC[C@@]2(O)[C@H]3Cc4ccc(O)c5c4[C@@]2(CCN3CC2CCC2)C1O5 (some centres unmarked) [6-O-mPEG3-Nalbuphine, 6-O-mPEG3-nalbuphine] | no effect

The compounds below were run against T1, cloned human kappa opioid receptor (Homo sapiens, UniProt P41145) (assay: cell-based). Settings: not given.
T1 construct: expressed in transfected cells; host or cells: CHO cells
Protocol: The efficacy of the various PEG-opioid conjugates was measured by their ability to inhibit cAMP formation following receptor activation. Studies were conducted in CHO cells heterologously expressing the cloned human mu, kappa or delta opioid receptors. cAMP was measured using a cAMP HiRange homogenous time-resolved fluorescence assay (HTRF Assay), that is based on a competitive immunoassay principle (Cisbio, Cat. #62AM6PEC).
Briefly, suspensions of cells expressing either the mu, kappa or delta opioid receptors were prepared in buffer containing 0.5 mM isobutyl-methyl xanthine (IBMX). […] EC50 values were calculated for each compound from a sigmoidal dose-response plot of concentrations versus maximum response. To determine if the compounds behaved as full or partial agonists in the system, the maximal response at the highest tested concentrations of compounds were compared to that produced by a known full agonist.

T1 sequence (P41145 whole entry): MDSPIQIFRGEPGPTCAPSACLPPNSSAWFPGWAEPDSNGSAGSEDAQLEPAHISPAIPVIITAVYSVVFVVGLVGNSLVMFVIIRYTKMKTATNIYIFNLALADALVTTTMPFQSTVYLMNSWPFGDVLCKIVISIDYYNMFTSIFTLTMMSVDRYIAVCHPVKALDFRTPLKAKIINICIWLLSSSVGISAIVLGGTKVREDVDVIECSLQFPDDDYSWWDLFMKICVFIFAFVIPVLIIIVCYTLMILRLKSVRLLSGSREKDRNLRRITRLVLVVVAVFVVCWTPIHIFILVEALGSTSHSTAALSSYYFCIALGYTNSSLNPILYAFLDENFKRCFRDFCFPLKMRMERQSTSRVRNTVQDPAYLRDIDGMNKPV

Compound | EC50
α-6-mPEG5-O-codeine | > 500 µM
COCCOCCOCCOCCO[C@H]1CC[C@@]2(O)[C@H]3Cc4ccc(OC)c5c4[C@@]2(CCN3C)[C@H]1O5 [α-6-mPEG4-O-Hydroxycodone, α-6-mPEG4-O-hydroxycodone] | > 500 µM
α-6-mPEG1-O-codeine | > 500 µM
α-6-mPEG4-O-codeine | > 500 µM
COc1ccc2c3c1O[C@H]1C(O)CC[C@@]4(O)[C@@H](C2)N(C)CC[C@]314 (stereo partly drawn) [Hydroxycodone, α-6-hydroxycodone, reference compound] | > 500 µM
α-6-mPEG6-O-codeine | > 500 µM

Same assay, conditions: inhibition of cAMP formation; 3 μM forskolin; tested upto 500 μM

Compound | EC50
COCCOCCOCCOCCOCCOCCOCCOCCOCCO[C@H]1CC[C@@]2(O)[C@H]3Cc4ccc(OC)c5c4[C@@]2(CCN3C)[C@H]1O5 [α-6-mPEG9-O-Hydroxycodone, α-6-mPEG9-O-hydroxycodone] | > 500 µM
COCCOCCOCCOCCOCCOCCO[C@H]1CC[C@@]2(O)[C@H]3Cc4ccc(OC)c5c4[C@@]2(CCN3C)[C@H]1O5 [α-6-mPEG6-O-Hydroxycodone, α-6-mPEG6-O-hydroxycodone] | > 500 µM
COCCOCCOCCOCCOCCO[C@H]1CC[C@@]2(O)[C@H]3Cc4ccc(OC)c5c4[C@@]2(CCN3C)[C@H]1O5 [α-6-mPEG5-O-Hydroxycodone, α-6-mPEG5-O-hydroxycodone] | > 500 µM
COCCOCCOCCO[C@H]1CC[C@@]2(O)[C@H]3Cc4ccc(OC)c5c4[C@@]2(CCN3C)[C@H]1O5 [α-6-mPEG3-O-Hydroxycodone, α-6-mPEG3-O-hydroxycodone] | > 500 µM
COCCOCCO[C@H]1CC[C@@]2(O)[C@H]3Cc4ccc(OC)c5c4[C@@]2(CCN3C)[C@H]1O5 [α-6-mPEG2-O-Hydroxycodone, α-6-mPEG2-O-hydroxycodone] | > 500 µM
COCCOCCOCCOCCOCCOCCOCCO[C@H]1CC[C@@]2(O)[C@H]3Cc4ccc(OC)c5c4[C@@]2(CCN3C)[C@H]1O5 [α-6-mPEG7-O-Hydroxycodone, α-6-mPEG7-O-hydroxycodone] | > 500 µM
COCCO[C@H]1CC[C@@]2(O)[C@H]3Cc4ccc(OC)c5c4[C@@]2(CCN3C)[C@H]1O5 [α-6-mPEG1-O-Hydroxycodone, α-6-mPEG1-O-hydroxycodone] | > 500 µM
